Experimental findings from ChEMBL document CHEMBL5236565, “Design, synthesis, and biological evaluation of novel 2'-methyl-2'-fluoro-6-methyl-7-alkynyl-7-deazapurine nucleoside analogs as anti-Zika virus agents” (Eur J Med Chem, 2022) are described below.

Data set [1] relates to Vero. The data set can be described thus: Downregulation of ZIKV E protein cleaved caspase 3 expression in African green monkey Vero cells at 10 to 50 uM measured after 48 hrs by Western blotting analysis. The class given is functional, cell-based. The conditions noted are these: Chlorocebus sabaeus, dose 10-50 µM.
Data set [2] relates to Zika virus. The data set can be described thus: Antiviral activity against ZIKV ZG-01 infected in human A549 cells assessed as reduction in viral induced cytopathic effect by measuring reduction in PFU measured after 4 days by neutral red staining based plaque assay. The class given is functional, organism-based. As to conditions: ZG-01, A549, 96 h; for EC90: time 4 day.
The subject of the next data set is Huh-7. The data set can be described thus: Cytotoxicity against human Huh-7 cells assessed as cell growth inhibition measured after 24 hrs by MTT assay. The class given is functional.
The test system of data set [3] is Zika virus. The data set can be described thus: Antiviral activity against ZIKV MR766 infected in African green monkey Vero cells assessed as reduction in viral induced cytopathic effect by measuring reduction in PFU measured after 4 days by neutral red staining based plaque assay. As to conditions: 96 h; for EC90: time 4 day. The class given is functional, organism-based.

Data set [4] relates to Zika virus. The data set can be described thus: Antiviral activity against ZIKV MR766 infected in human A549 cells assessed as reduction in viral induced cytopathic effect by measuring reduction in PFU measured after 4 days by neutral red staining based plaque assay. It is filed as functional, organism-based. The conditions noted are these: MR766, A549, 96 h; for EC90: time 4 day.

Data set [5] deals with A549. The data set can be described thus: Downregulation of ZIKV E protein cleaved caspase 3 expression in human A549 cells at 5 to 25 uM by immunofluorescence analysis. The class given is functional, cell-based. As to conditions: dose 5-25 µM.
For another data set, the system named is SNB-19. The data set can be described thus: Cytotoxicity against human SNB-19 cells assessed as cell growth inhibition measured after 24 hrs by MTT assay. The class given is functional.
For data set [6], the system named is Zika virus. The data set can be described thus: Antiviral activity against ZIKV MR766 infected in human Huh-7 cells assessed as reduction in viral induced cytopathic effect by measuring reduction in PFU measured after 4 days by neutral red staining based plaque assay. The class given is functional, organism-based. As to conditions: MR766, Huh-7, 96 h; for EC90: time 4 day.

Data set [7] relates to Zika virus. The data set can be described thus: Antiviral activity against ZIKV MR766 infected in human SNB-19 cells assessed as reduction in viral induced cytopathic effect by measuring reduction in PFU measured after 4 days by neutral red staining based plaque assay. As to conditions: MR766, SNB-19, 96 h; for EC90: time 4 day. The class given is functional, organism-based.

In data set [8] the test system is Zika virus. The data set can be described thus: Antiviral activity against ZIKV ZG-01 infected in human SNB-19 cells assessed as reduction in viral induced cytopathic effect by measuring reduction in PFU measured after 4 days by neutral red staining based plaque assay. It is filed as functional, organism-based. As to conditions: ZG-01, SNB-19, 96 h; for EC90: time 4 day.

Data set [9] concerns Zika virus. The data set can be described thus: Antiviral activity against ZIKV ZG-01 infected in human Huh-7 cells assessed as reduction in viral induced cytopathic effect by measuring reduction in PFU measured after 4 days by neutral red staining based plaque assay. The class given is functional, organism-based. As to conditions: ZG-01, Huh-7, 96 h; for EC90: time 4 day.

In data set [10] the test system is A549. The data set can be described thus: Downregulation of ZIKV E protein cleaved caspase 3 expression in human A549 cells at 10 to 50 uM measured after 48 hrs by Western blotting analysis. The class given is functional, cell-based. The conditions noted are these: dose 10-50 µM.
The nature of data set [11]: Cytotoxicity against African green monkey Vero cells assessed as cell growth inhibition measured after 24 hrs by MTT assay. The class given is toxicity, cell-based. The conditions noted are these: chlorocebus sabaeus.
The test system of data set [12] is A549. The data set can be described thus: Cytotoxicity against human A549 cells assessed as cell growth inhibition measured after 24 hrs by MTT assay. The class given is functional.
The subject of data set [13] is Zika virus. The data set can be described thus: Antiviral activity against ZIKV ZG-01 infected in African green monkey Vero cells assessed as reduction in viral induced cytopathic effect by measuring reduction in PFU measured after 4 days by neutral red staining based plaque assay. It is filed as functional, organism-based. As to conditions: ZG-01, Vero, 96 h; for EC90: time 4 day.

Data set [14] has as its system A549. The data set can be described thus: Downregulation of ZIKV E protein cleaved caspase 3 expression in human A549 cells at 5 to 25 uM measured after 48 hrs by Western blotting analysis. It is filed as functional, cell-based. As to conditions: dose 5-25 µM.
Data set [15] relates to Vero. The data set can be described thus: Downregulation of ZIKV E protein cleaved caspase 3 expression in African green monkey Vero cells at 5 to 25 uM measured after 48 hrs by Western blotting analysis. The class given is functional, cell-based. As to conditions: Chlorocebus sabaeus, dose 5-25 µM.
The target of the next data set is NS5 (Zika virus, UniProt A0A143MHK7). The data set can be described thus: Binding affinity to N-terminal His-tagged recombinant ZIKV ZG-01 RdRp (272 to 903 residues) expressed in Escherichia coli rosetta by surface plasmon resonance assay.
NS5, sequence (A0A143MHK7 whole entry, the tested form may be a part): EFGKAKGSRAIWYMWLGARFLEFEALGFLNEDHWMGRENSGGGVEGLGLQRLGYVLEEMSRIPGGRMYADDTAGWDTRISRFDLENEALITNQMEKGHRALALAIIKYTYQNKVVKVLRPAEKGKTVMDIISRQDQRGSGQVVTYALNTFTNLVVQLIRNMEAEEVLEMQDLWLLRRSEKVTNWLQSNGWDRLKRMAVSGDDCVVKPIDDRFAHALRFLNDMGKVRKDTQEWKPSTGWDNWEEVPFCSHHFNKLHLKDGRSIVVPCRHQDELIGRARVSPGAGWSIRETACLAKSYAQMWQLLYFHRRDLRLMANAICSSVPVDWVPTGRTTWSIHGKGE
For data set [16], the system named is A549. The data set can be described thus: Induction of mitochondrial membrane potential loss in human A549 cells at 50 to 100 uM by JC-1 staining based fluorescence microscope. It is filed as functional, cell-based. The conditions noted are these: dose 50-100 µM.
The test system of data set [17] is A549. The data set can be described thus: Downregulation of ZIKV E protein cleaved caspase 3 expression in human A549 cells at 2.5 to 25 uM by immunofluorescence analysis. The class given is functional, cell-based. As to conditions: dose 2.5-25 µM.

Active and inactive are the calls of the source. The calls are words filed in the database; no cut-off is given here.

For the compound `NC(=O)c1ncn([C@@H]2O[C@H](CO)[C@@H](O)[C@H]2O)n1` [RIBAVIRIN], the outcome in the data set on Vero [1], with A549 [5] and in the data set on A549 [10] was inactive. Further, the EC50 with Zika virus [2] was 36.1 µM; with Zika virus [3] it was greater than 80 µM; with Zika virus [4], 38.1 µM; in the data set on Zika virus [6] it was 17.7 µM; with Zika virus [7] it was greater than 80 µM; with Zika virus [8], greater than 80 µM. The results for the EC50 in the data set on Zika virus [9] and in the data set with Zika virus [13] were 14.1 µM and greater than 80 µM, respectively. Besides, the concentration for an effect of 90% (EC90) in the data set on Zika virus [2] was 70.3 µM; in the data set on Zika virus [3] it was greater than 80 µM; in the data set on Zika virus [4], 75.9 µM; in the data set with Zika virus [6], 51 µM; in the data set on Zika virus [7], greater than 80 µM; in the data set with Zika virus [8], greater than 80 µM. Also, the concentration for an effect of 90% (EC90) in the data set on Zika virus [9] is 47.4 µM; with Zika virus [13], greater than 80 µM. The results for the CC50 in the data set with Huh-7, with SNB-19 and in the data set with A549 [12] were 513 µM, 485 µM and greater than 50 µM, respectively. In [11], the 50% cytotoxic concentration (CC50) at 24 h came out at 470 µM.

For the compound `Cc1ncnc2c1c(C#Cc1ccc(Br)c(F)c1)cn2[C@@H]1O[C@H](CO)[C@@H](O)[C@@]1(C)F`, the result with A549 [14], in the data set on Vero [15] and with A549 [17] was Active. For the same compound, the EC50 was determined as 2.8 µM in the data set on Zika virus [2]; 7.7 µM with Zika virus [3]; 6.4 µM with Zika virus [4]; 6.1 µM in the data set on Zika virus [6]; 8.9 µM in the data set on Zika virus [7]; 6.4 µM with Zika virus [8]. Further, the EC50 worked out at 5.7 µM in the data set on Zika virus [9] and 3.1 µM in the data set on Zika virus [13]. In addition, the EC90 in the data set on Zika virus [2] is 6.8 µM; in the data set with Zika virus [3] it was 18.6 µM; in the data set on Zika virus [4], 18 µM; in the data set with Zika virus [6], 14.6 µM; in the data set on Zika virus [7], 19.8 µM; in the data set on Zika virus [8], 16.6 µM. For the same compound, the figures for the concentration for an effect of 90% (EC90) in the data set on Zika virus [9] and in the data set with Zika virus [13] were 16.4 µM and 7.1 µM, respectively. Besides, the values for the CC50 in the data set with Huh-7, in the data set on SNB-19 and in the data set with A549 [12] were 43.8 µM, 49.4 µM and greater than 50 µM, respectively. Besides, on NS5, the dissociation constant (Kd) was 1.87 µM. Further, the result with A549 [16] was inactive. Moreover, the CC50 at 24 h in data set [11] was determined as 46.8 µM.
